From US20250099415A1, “Methods for Inhibiting the Progression of Oxidative Retinal Disease” (BioJiva LLC, priority 2021, published 2025)

Test system: macular degeneration patients
Experiment: Clinical study of geographic atrophy progression in macular degeneration patients, treated versus placebo cohort
Type: in vivo, human
Procedure: This example illustrates the reduction in the rate of macular degeneration progression in a cohort of patients treated with deuterated docosahexaenoic acid ethyl ester similar to that of Example 1, as compared to a cohort of placebo patients. Specifically, the treated cohort […]. The patients are maintained on this dosing regimen throughout the clinical study. Periodic measurements of further geographic atrophy development are obtained.
Dosing is continued for 6 or 12, or 18 or 24 months. At that time, the average extent of geographic atrophy progression is measured for each cohort. The efficacy of the treatment protocol is evaluated by comparing the extent of geographic atrophy progression in a treated population against a placebo population. […]
Alternatively, the rate of disease progression for an individual patient can be assessed by the following: • a) determine the rate of disease progression for said individual patient by measuring the extent of geographic atrophy in the patient's retina at the start of therapy and at 6, 12, 18 or 24 months post start of therapy and assigning a […] value “D” to that differential; • b) determine the average rate of disease progression for a cohort of patients treated with placebo (safflower oil) by measuring the extent of geographic atrophy in each of the patient's retina at the start of therapy and at 6, 12, 18 or 24 months post start of therapy, determining the difference between the extent of atrophy at the start of therapy and at the later time point, and then obtaining an average for that differential and assigning a second value designated as “E” to that average differential; • c) calculating the difference between D and E and assign “F” to that value (e.g, E−D=F); • d) assign a positive value to “F” if E is greater than D; • e) assign a negative value to “F” if E is less than D; and • f) divide F by E and multiply by 100 [(F/E)×100]. […]

[1] = 6, 12, 18 or 24 months post start of therapy, placebo safflower oil

“Deuterated Docosahexaenoic Acid Ethyl Ester” was tested, and the “reduction in the rate of disease progression (extent of geographic atrophy progression, treated population against placebo population)” value (250 mg/day, dosing for 6 or 12, or 18 or 24 months, versus safflower oil placebo cohort) was “statistically significant reduction in the rate of disease progression”, the “percent reduction in geographic atrophy, individual treated patient vs placebo cohort [(F/E)×100]” value [1] was “positive percent reduction in geographic atrophy that is statistically significant” and the “percent reduction in geographic atrophy, treated cohort vs placebo cohort [(C/B)×100]” value [1] was “positive percent reduction in geographic atrophy that is statistically significant”.
